“Also recorded” adds a separate entry of the source.
Key:
[1] = tested on: GBM culture 2231; assay: Cytotoxicity of NXD30001 and 17-AAG in GBM cultures; assay type: cell-based, mouse; settings: GBM 2231; mean of three independent experiments ± standard deviation
Method: (§1) Primary cultures of tumors or newborn mice astrocytes were established as follows: tumors or P0 neonate cortices were excised and minced in 0.25% trypsin (wt/vol) 1 mM EDTA and allowed to disaggregate for 15 min at 37° C. The resulting cell suspension was then strained through a 70-μm cell strainer (Falcon). The single suspension of cells was washed in PBS twice and plated on 0.2% gelatin-coated tissue culture plates. Cells were fed every 24 hr with fresh medium that consisted of DMEM supplemented with 10% heat-inactivated FBS and antibiotics. The primary cultures of astrocytes were routinely stained for markers of astrocytic lineages by immunofluorescence.
(§2) Cytotoxicity of NXD30001 was assessed in GMB cell proliferating cultures obtained from clinical mouse subjects and was compared to that of 17-(Allylamino)-17-demethoxygeldanamycin (17-AAG), an ansamycin antibiotic which binds to HSP90. Data obtained was analyzed as half maximum inhibitory concentration (1050) values (Table 3).

[2] = tested on: GBM-1 cells; assay: as above; assay type: cell-based, mouse; settings: mean of three independent experiments ± standard deviation
Method: as §1, §2

[3] = tested on: GBM culture 2734; assay: as above; assay type: cell-based, mouse; settings: GBM 2734; mean of three independent experiments ± standard deviation
Method: as §1, §2

[4] = tested on: GBM culture 42; assay: as above; assay type: cell-based, mouse; settings: GBM 42; mean of three independent experiments ± standard deviation
Method: as §1, §2

[5] = tested on: GBM culture 46; assay: as above; assay type: cell-based, mouse; settings: GBM 46; mean of three independent experiments ± standard deviation
Method: as §1, §2

[6] = tested on: GBM culture 2000; assay: as above; assay type: cell-based, mouse; settings: GBM 2000; mean of three independent experiments ± standard deviation
Method: as §1, §2

[7] = tested on: GBM culture 102; assay: as above; assay type: cell-based, mouse; settings: GBM 102; mean of three independent experiments ± standard deviation
Method: as §1, §2

[8] = tested on: GBM culture 69; assay: as above; assay type: cell-based, mouse; settings: GBM 69; mean of three independent experiments ± standard deviation
Method: as §1, §2

[9] = tested on: GBM culture 2415; assay: as above; assay type: cell-based, mouse; settings: GBM 2415; mean of three independent experiments ± standard deviation
Method: as §1, §2

[10] = tested on: GBM-2 cells; assay: as above; assay type: cell-based, mouse; settings: mean of three independent experiments ± standard deviation
Method: as §1, §2

[11] = tested on: GBM culture 41; assay: as above; assay type: cell-based, mouse; settings: GBM 41; mean of three independent experiments ± standard deviation
Method: as §1, §2

[12] = tested on: GBM culture 2414; assay: as above; assay type: cell-based, mouse; settings: GBM 2414; mean of three independent experiments ± standard deviation
Method: as §1, §2

[13] = tested on: GBM culture 103; assay: as above; assay type: cell-based, mouse; settings: GBM 103; mean of three independent experiments ± standard deviation
Method: as §1, §2

[14] = tested on: GBM culture 2227; assay: as above; assay type: cell-based, mouse; settings: GBM 2227; mean of three independent experiments ± standard deviation
Method: as §1, §2

[15] = tested on: recurrent and newly diagnosed GBMs; settings: unselected patients; phase II; cited from earlier work
[16] = tested on: GBMs; settings: GBM patients; cited from earlier work
[17] = tested on: GBM tumors in conditional EGFR animals; settings: animal number 2148; 80 days
Method: Bioluminescence was measured noninvasively using the IVIS 200 imaging system (Xenogen). For live imaging, the surface areas of focus for imaging were depilated using commercial depilatory creams. Images were taken 10 min after IP injection of luciferin (225 mg/kg, Xenogen) to allow sufficient time for distribution of luciferin, with a 60 second photon acquisition during which mice were sedated via continuous inhalation of 3% isoflurane. For organ imaging post luciferin injection, animals were incubated for 10 min and perfused transcardially with saline. Bioluminescence imaging was then performed on individually dissected organs. Signal intensity was quantified for defined regions of interest as photon count rate per unit body area per unit solid angle subtended by the detector (units of photons/s/cm^2/steradian). All image analyses and bioluminescent quantification were performed using Living Image software v. 2.50 (Xenogen).
Conditional EGFR animals were examined using bioluminescence imaging at different periods of time after tumor induction with Ad-Cre-recombinase by the methods above.

Q: With `C=CCNC1=C2C[C@@H](C)C[C@H](OC)[C@H](O)[C@@H](C)/C=C(\C)[C@H](OC(N)=O)[C@@H](OC)/C=C\C=C(/C)C(=O)NC(=CC1=O)C2=O` [17-AAG, 17-(Allylamino)-17-demethoxygeldanamycin] as the molecule, how does the IC50 [1] read?
A: Its IC50 is 0.737 ± 0.072 µM.

Q: What about the IC50 [2] of the same molecule?
A: Its IC50 is 0.208 ± 0.0096 µM.

Q: And the IC50 [3]?
A: Its IC50 is 0.381 µM.

Q: And the IC50 [4]?
A: The IC50 was 0.166 ± 0.0249 µM.

Q: And the IC50 [5]?
A: The IC50 was 0.0919 ± 0.0014 µM.

Q: And the IC50 [6]?
A: The IC50 was 0.345 ± 0.0755 µM.

Q: What about the IC50 [7] of the same molecule?
A: Its IC50 is 0.6262 ± 0.006 µM.

Q: What about the IC50 [8] of the same molecule?
A: Its IC50 is 0.091 µM.

Q: What about the IC50 [9] of the same molecule?
A: The IC50 was 0.329 ± 0.0501 µM.

Q: What about the IC50 [10] of the same molecule?
A: Its IC50 is 1.1 ± 0.119 µM.

Q: And the IC50 [11]?
A: Its IC50 is 0.1 ± 0.005 µM.

Q: And the IC50 [12]?
A: Its IC50 is 0.205 ± 0.0131 µM.

Q: What about the IC50 [13] of the same molecule?
A: Its IC50 is 0.793 ± 0.0287 µM.

Q: What about the IC50 [14] of the same molecule?
A: The IC50 was 0.712 µM.

Q: Which overall efficacy [15] does the source give for `COc1cc2ncnc(Nc3ccc(F)c(Cl)c3)c2cc1OCCCN1CCOCC1` [gefitinib] here?
A: The overall efficacy was “minimal when compared with historical data”.

Q: For `CO[C@H]1C[C@@H]2CC[C@@H](C)[C@@](O)(O2)C(=O)C(=O)N2CCCC[C@H]2C(=O)O[C@H]([C@H](C)C[C@@H]2CC[C@@H](OC(=O)C(C)(CO)CO)[C@H](OC)C2)CC(=O)[C@H](C)/C=C(\C)[C@@H](O)[C@@H](OC)C(=O)[C@H](C)C[C@H](C)/C=C/C=C/C=C/1C` [temsirolimus], which “Phase II results of two clinical trials” value [16] is on record?
A: The value was “negative, with no improvement in response rates, progression-free survival or overall survival”.

Q: Which overall efficacy [15] does the source give for `C#Cc1cccc(Nc2ncnc3cc(OCCOC)c(OCCOC)cc23)c1` [Tarceva, erlotinib] here?
A: The overall efficacy was “minimal when compared with historical data”.

Q: And the “outcome by bioluminescence imaging” value [17]?
A: Its value is “essentially cured by treatment; also recorded: essentially been cured of cancer”.
